How the values were obtained:
human CNT2 = biological target: T1, human CNT2 (Homo sapiens, UniProt O43868, I160M/P22L/S45C); assay: Inhibitory activity against uptake of adenosine through human CNT2; assay type: cell-based; details: COS-7 cells transiently expressing human CNT2; adenosine 10 μM; NBMPR 10 μM; incubation 30 minutes at 37° C.
T1 construct: expressed in transfected cells; host or cells: COS-7 cells (RIKEN CELL BANK RCB0539), transient lipofection of pCI-neo plasmid
T1 sequence (O43868 1-658 P22L/S45C/I160M): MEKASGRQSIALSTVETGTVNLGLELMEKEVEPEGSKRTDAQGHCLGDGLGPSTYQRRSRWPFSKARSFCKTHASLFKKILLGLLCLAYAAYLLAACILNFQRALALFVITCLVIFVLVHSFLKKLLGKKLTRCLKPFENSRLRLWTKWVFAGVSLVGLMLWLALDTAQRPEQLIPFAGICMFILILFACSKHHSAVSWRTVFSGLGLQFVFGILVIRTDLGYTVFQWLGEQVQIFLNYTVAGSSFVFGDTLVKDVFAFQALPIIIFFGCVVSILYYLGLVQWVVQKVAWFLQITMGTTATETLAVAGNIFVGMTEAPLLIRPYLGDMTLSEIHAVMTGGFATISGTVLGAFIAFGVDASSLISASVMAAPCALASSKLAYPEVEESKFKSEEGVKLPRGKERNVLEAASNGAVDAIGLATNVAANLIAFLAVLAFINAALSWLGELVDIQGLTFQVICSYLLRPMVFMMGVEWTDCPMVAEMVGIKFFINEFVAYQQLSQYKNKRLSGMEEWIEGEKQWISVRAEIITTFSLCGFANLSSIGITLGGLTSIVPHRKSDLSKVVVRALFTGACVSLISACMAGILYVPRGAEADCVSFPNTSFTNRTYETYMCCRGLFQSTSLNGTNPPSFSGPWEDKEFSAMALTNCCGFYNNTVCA
Experimental: Human CNT2 cDNA was obtained by PCR amplification of human kidney cDNA (CLONTECH). PCR reaction solution contained 1 μL cDNA, 2 units Platinum taq DNA polymerase high fidelity (Invitrogen), 1 μM primers (Forward: 5′-AGGAGCCAGAGGGAATCAAT-3′, Reverse: 5′-ACATCTTGGTGAGTGAGTTG-3′). Amplifications for 1 cycle at 94° C. for 2 minutes, 32 cycles at 94° C. for 30 seconds, 58° C. for 30 seconds and 68° C. for 3 minutes were performed and PCR products were ligated into PCR-II-TOPO vector (Invitrogen). PCR reaction was performed with primers containing restriction enzyme sites and the constructed plasmid as a template. PCR reaction solution contained 100 ng plasmid, 2 units Pyrobest DNA polymerase (Takara), 330 nM primers (Forward: 5′-CCGCTCGAGAGGAGCCAGAGGGAATCAAT-3′, Reverse: 5′-CGTCTAGAACATCTTGGTGAGTGAGTTG-3′). Amplifications for 1 cycle at 95° C. for 3 minutes, 15 cycles at 98° C. for 10 seconds, 60° C. for 30 seconds and 72° C. for 1 minute and 1 cycle at 72° C. for 7 minutes were performed, and the PCR products were ligated into PCI-neo mammalian expression vector (Promega). The amino acid sequence of cloned human CNT2 was substituted at P22L (codon, CCG to CTG), S45C (codon, AGC to TGC) and I160M (codon, ATA to ATG) compared to a reported amino acid sequence for human CNT2 (NCBI Accession No. AAC51930).
Expression plasmid of human CNT2 was transfected into COS-7 cells (RIKEN CELL BANK RCB0539) by lipofection method. LIPOFECTAMINE 2000 (Invitrogen) was used as a lipofection reagent. COS-7 cells were diluted in D-MEM (Invitrogen) containing 10% fetal calf serum (Sanko Junyaku) at 5×10^5/1 mL, and seeded into collagen-coated 96-well plates (IWAKI) at 100 μL/well and cultured at 37° C. for 2 hours with 5% CO2 condition. For each well, 0.6 μL of LIPOFECTAMINE 2000 (Invitrogen) was diluted in 25 μL of OPTI-MEM (Invitrogen), and incubated for 7 minutes at room temperature (hereinafter referred to as Lipo 2000-OPTI). For each well, 0.3 μg of plasmid was diluted in 25 μL of OPTI-MEM (Invitrogen), and the solution was added to the Lipo 2000-OPTI and mixed gently and incubated for 30 minutes at room temperature, and was transferred 50 μL for each well to culture medium. The cells were incubated at 37° C. with 5% CO2 condition for 2 days, and used for the uptake assays.
An Uptake buffer was prepared by addition of a mixture of non-radioisotope labeled (Sigma) and ^14C-labeled (Amersham Biosciences) adenosine at the final concentration of 10 μM into a buffer, pH 7.4, containing 140 mM sodium chloride, 2 mM potassium chloride, 1 mM calcium chloride, 1 mM magnesium chloride, 10 mM HEPES 2-[4-(2-hydroxyethyl)-1-piperazinyl]ethane sulfonic acid, 5 mM tris(hydroxymethyl)aminomethane and 5 mM glucose. For measurement of basal uptake, Basal uptake measurement buffer, which contained 140 mM choline chloride instead of sodium chloride was prepared. […]. After removing culture medium of human CNT2 transiently expressing cells, Pretreatment buffer (Basal uptake measurement buffer without adenosine and glucose) was added to wells at 200 μL/well and incubated at 37° C. for 10 minutes. After repeating the same step again, Pretreatment buffer was removed and Measurement buffers and Basal uptake measurement buffer were added at 75 μL/well and incubated at 37° C. After incubation for 30 minutes, Measurement buffers and Basal uptake measurement buffer were removed, and the cells were washed with Washing buffer (Basal uptake measurement buffer with non-radioisotope labeled adenosine at 10 μM) at 200 μL/well twice. The cells were solubilized with 0.2 mol/L sodium hydroxide at 75 μL/well, and the cell lysates were transferred into PicoPlates (Perkin Elmer). After mixing with 150 μL of MicroScint-40 (Perkin Elmer), radioactivity was measured by means of scintillation counter (Perkin Elmer). […]

ENT2 = biological target: T2, ENT2 (Homo sapiens, UniProt Q14542); details: ENT2, high concentration of NBMPR; cited from earlier work
T2 sequence (Q14542 1-456): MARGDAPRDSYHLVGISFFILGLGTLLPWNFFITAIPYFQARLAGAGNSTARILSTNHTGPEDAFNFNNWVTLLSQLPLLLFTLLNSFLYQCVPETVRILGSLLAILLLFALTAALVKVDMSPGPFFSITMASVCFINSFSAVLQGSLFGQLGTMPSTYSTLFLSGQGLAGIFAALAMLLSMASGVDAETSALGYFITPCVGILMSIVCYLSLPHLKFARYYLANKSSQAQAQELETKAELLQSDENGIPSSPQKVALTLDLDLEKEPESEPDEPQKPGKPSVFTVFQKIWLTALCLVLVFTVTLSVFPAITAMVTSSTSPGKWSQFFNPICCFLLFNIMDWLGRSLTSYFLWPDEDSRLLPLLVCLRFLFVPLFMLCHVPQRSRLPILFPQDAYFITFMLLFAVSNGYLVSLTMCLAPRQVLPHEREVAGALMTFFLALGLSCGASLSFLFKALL

[1] = Effects of CNT2 inhibitors on plasma uric acid level (purine tolerance test in rats); assay type: in vivo; details: Male SD-IGS rats; oxonic acid 100 mg/kg s.c.; purine mix 50 mg/kg and test compound 10 mg/kg orally; blood after 1 hour; control group = 100%; Example 28 by HPLC, Examples 89 and 90 by phosphotungstic acid method
Experimental: Male SD-IGS rats (5 weeks old) which were fasted overnight, were subcutaneously treated with oxonic acid (Aldrich; 100 mg/kg), and after 1 hour, purine mix (Adenosine:Inosine:Guanosine=1:1:1 (Adenosine (Sigma), Inosine (WAKO), Guanosine (ICN); 50 mg/kg) and test compounds (10 mg/kg) were orally administrated simultaneously. A control group was treated with oxonic acid and the purine mix, and a group administrated only oxonic acid represented endogenous plasma uric acid value. After 1 hour, blood was collected from the abdominal aorta under ether anesthesia, and the plasma was collected with Venoject II vacuum blood collecting tube (Terumo, VP-FH052). According to the method described in Journal of Chromatography B, Vol. 744 (2000), pp. 129-138, plasma uric acid level in a compound of Example 28 was measured by using HPLC method mentioned below. Plasma uric acid levels in compounds of Examples 89 and 90 were measured by phosphotungstic acid method. Uric acid-Test Wako (WAKO) was used as a measurement reagent. As there is no difference of uric acid values between the HPLC method and the phosphotungstic acid method, uric acid value can be measured by either of both methods (for example, see the above Management guideline, pp. 18-19). The difference between plasma uric acid value in each study group and endogenous plasma uric acid value was calculated on the basis of 100% in the control group.
Theophylline (10 μg) as an internal standard substance was added to 0.1 mL of plasma collected with the above method, and then the samples were deproteinized with 1 mL of methanol. After the samples were centrifuged, the methanol layers were evaporated to dryness under a stream of nitrogen. […] Plasma uric acid concentration was determined by HPLC method according to the condition described below. […]
• Column: Inertsil ODS-2 (4.6×250 mm) • Mobile phase • A solution: acetonitrile • B solution: 10 mM phosphate buffer (pH 3.0) • A linear gradient elution method: A solution 2% to A solution 22% (25 minutes) • Column temperature: 40° C. • Flow rate: 0.5 mL/minute • Detection absorbance: 284 nm

| SMILES | IC50 (human CNT2) [nM] | IC50 (ENT2) [nM] | Percentage of increment of plasma uric acid level (%) [1] |
| --- | --- | --- | --- |
| C[N+](C)(CCO)CCCOc1cccc(CNc2nc3ccccc3n2[C@@H]2O[C@H](CO)[C@@H](O)[C@H]2O)c1 [Example 93] | 172 |  |  |
| O=[N+]([O-])c1ccc(CSc2ncnc3c2ncn3C2OC(CO)C(O)C2O)cc1 (stereo not drawn) [NBMPR, nitrobenzylthioinosine] |  | > 1000 |  |
| OCCCCOc1cc(CNc2nc3ccccc3n2[C@@H]2O[C@H](CO)[C@@H](O)[C@H]2O)ccc1-c1ccccc1 [Example 28, 2-[3-(4-Hydroxybutoxy)-4-phenylbenzylamino]-1-(β-D-ribofuranosyl)-1H-benzimidazole] | 46 |  | 15.2% (p < 0.01) |
| CCOc1ccc(CNc2nc3ccccc3n2[C@@H]2O[C@H](CO)[C@@H](O)[C@H]2O)cc1OCCCCO [Example 34, 2-[4-Ethoxy-3-(4-hydroxybutoxy)benzylamino]-1-(β-D-ribofuranosyl)-1H-benzimidazole] | 104 |  |  |
| NCCCOc1cc(CNc2nc3ccccc3n2[C@@H]2O[C@H](CO)[C@@H](O)[C@H]2O)ccc1-c1ccccc1 [Example 51, 2-[3-(3-Aminopropoxy)-4-phenylbenzylamino]-1-(β-D-ribofuranosyl)-1H-benzimidazole] | 9 |  |  |
| CCCOc1ccc(CNc2nc3ccccc3n2[C@@H]2O[C@H](CO)[C@@H](O)[C@H]2O)cc1OCCCCO [Example 36] | 150 |  |  |
| CCCCOc1ccc(CNc2nc3ccccc3n2[C@@H]2O[C@H](CO)[C@@H](O)[C@H]2O)cc1OCCCCO [Example 37] | 213 |  |  |
| CN(C)CCCOc1cccc(CNc2nc3ccccc3n2[C@@H]2O[C@H](CO)[C@@H](O)[C@H]2O)c1 [Example 90] | 184 |  | 45.6% (p < 0.05) |
| NC(=O)C1CCN(CCCOc2cccc(CNc3nc4ccccc4n3[C@@H]3O[C@H](CO)[C@@H](O)[C@H]3O)c2)CC1 [Example 89, 2-{3-[3-(4-Carbamoylpiperidin-1-yl)propoxy]benzylamino}-1-(β-D-ribofuranosyl)-1H-benzimidazole] | 55 |  | 24.9% (p < 0.01) |

— patent US7547680B2, “Benzimidazole derivatives and medical uses thereof” (Kissei Pharmaceuticals, Co., Ltd., priority 2004, dated 2009)
